Reference: US10022377B2, “Method of treating hypertension” (Cipla Limited, priority 2015, dated 2018)

Experiments:
[1] = tested on: rat monocrotaline (MCT) model of PAH; test: Pulmonary arterial hypertension efficacy model: monocrotaline rat; assay type: in vivo, Sprague-Dawley rats; details: in words
Description: Adult male Sprague-Dawley rats (287±4 g) were obtained from Charles River Laboratories (Raleigh, N.C.). Animals housed individually in a temperature/humidity controlled room with 12-hour light/dark cycles, had free access to water and food and were acclimated for one week prior to the study. Rats were randomly assigned to one of the experimental groups (n=10 per group). Rats in groups 1 and 2 served as healthy controls; the remaining rats were injected subcutaneously on Day 0 with 60 mg/kg body weight monocrotaline, the toxic alkaloid of Crotalaria spectabilis, (dissolved in DMSO at a concentration of 60 mg/ml, Sigma Aldrich, St. Louis, Mo.). On days 1-21, the rats were dosed via oral gavage (2 ml/kg) with vehicle (PBS), or the test compound—Anagrelide. Rats were weighed daily, and the dosages of test compound adjusted appropriately.
Monocrotaline (MCT) is an 11-membered macrocyclic pyrrolizidine plant alkaloid. A single SQ injection into rats results in hepatic generation of toxic metabolite—MCT pyrrole. Phase II metabolism of MCT is through glutathione conjugation. Reactive metabolite is transported to lungs, injuring pulmonary vasculature.

[2] = tested on: rats with monocrotaline induced pulmonary arterial hypertension; test: Hemodynamic evaluation in anesthetized rats treated with monocrotaline to induce pulmonary arterial hypertension; assay type: in vivo, Sprague-Dawley rats; details: for HR / HW/BW / Heart Wt / LV Wt / Lung Wt / MAP / Mean PAP / RV Wt / RV/BW / Systolic PAP / RV/LV + S: 28 days, MCT rats, mean ± SEM; for RV/LV + S: Fulton's Index
Description: The effects of sildenafil and anagrelide were evaluated in rats with monocrotaline induced pulmonary arterial hypertension. Male Sprague-Dawley rats were orally administered vehicle (variable, see below), anagrelide (1 mg/kg given once daily for 28 days or 2 mg/kg total daily dose, divided into a BID regimen given every day for 28 days starting on Day 1), or sildenafil (30 mg/kg, administered twice daily) (n=10 in each group). Rats received a single injection of monocrotaline (60 mg/kg, s.c.) on Study Day 1. On the twenty-eighth day following monocrotaline dosing, the rats were anesthetized with ketamine/xylazine for terminal monitoring of pulmonary and systemic arterial pressures along with heart rate. The study design for the test article and vehicle administrations are detailed below: […]

platelets [3] = details: preclinical pharmacology data; in words; cited from earlier work
[4] = metabolite versus anagrelide; cited from earlier work
platelets [5] = details: metabolite; in words; cited from earlier work
[6] = daily oral doses for three weeks
[7] = 2 mg/kg/day given BID, after 28 days, in words
[8] = Anagrelide 1 mg/kg once daily oral
[9] = Anagrelide 2 mg/kg/day bid oral
[10] = Sildenafil 60 mg/kg/day bid oral

In the case of O=C1CN2Cc3c(ccc(Cl)c3Cl)N=C2N1 [Anagrelide, anagrelide], the “development of PAH” value ([1]; daily oral doses for three weeks after MCT 60 mg/kg s.c.) was “prevent the development of PAH”, the “hypertrophy of the right ventricle” value [1, 6] was “prevents” and the “monocrotaline (MCT)-induced elevations in pressure in the pulmonary arterial circuit” value [1, 6] was “prevents”. The “mean pulmonary arterial pressure compared to the vehicle group” value [2, 7] was “differences”, the “systolic pulmonary arterial pressure compared to the vehicle group” value [2, 7] was “reduction” and the HR [2, 8] was 325 ± 28 bpm. The HW/BW [2, 8] was 4.34 ± 0.45, the “Heart Wt” value [2, 8] was 1.37 ± 0.03 g and the “LV Wt” value [2, 8] was 0.76 ± 0.01 g. For the same molecule, the “Lung Wt” value [2, 8] was 2.10 ± 0.19 g, the MAP [2, 8] was 59 ± 5 mm Hg and the “Mean PAP” value [2, 8] was 36 ± 2 mm Hg. For the same molecule, the “RV Wt” value [2, 8] was 0.47 ± 0.01 g, the RV/BW [2, 8] was 1.49 ± 0.16 and the “Systolic PAP” value [2, 8] was 44 ± 2 mm Hg. For the same molecule, the HR [2, 9] was 258 ± 10 bpm, the HW/BW [2, 9] was 3.98 ± 0.24 and the “Heart Wt” value [2, 9] was 1.21 ± 0.04 g. For the same molecule, the “LV Wt” value [2, 9] was 0.69 ± 0.02 g, the “Lung Wt” value [2, 9] was 2.21 ± 0.07 g and the MAP [2, 9] was 52 ± 6 mm Hg. The “Mean PAP” value [2, 9] was 36 ± 2 mm Hg, the “RV Wt” value [2, 9] was 0.41 ± 0.02 g and the RV/BW [2, 9] was 1.35 ± 0.12. For the same molecule, the “Systolic PAP” value [2, 9] was 43 ± 4 mm Hg, the “RV/LV + S” value [2, 8] was 0.62 ± 0.01 and the “RV/LV + S” value [2, 9] was 0.59 ± 0.04. For the same molecule, the “hypertrophy when correcting RV (wt) by body weight” value ([2]; at either dose, in words) was “decrease in hypertrophy”, the “Mean arterial pressure compared to vehicle” value ([2]; in words) was “lower” and the “right ventricular hypertrophy (RV/LV+S, Fulton's Index) compared to vehicle” value ([2]; in words) was “no change”. The “effect on other cellular components of the blood” value (platelets [3]) was “no significant effect” and the “inhibition of platelet aggregation” value (platelets [3]) was “potent inhibitor”.
For O=C1NC2=Nc3ccc(Cl)c(Cl)c3CN2C1O (stereo not drawn) [BCH24426, 3-hydroxy anagrelide], the “Exposure as measured by plasma AUC compared to anagrelide” value [4] is given as “approximately 2 fold”.
In the case of NC1=Nc2ccc(Cl)c(Cl)c2CN1 [RL603, 5,6-dichloro-3,4-dihydroquinazolin-2-ylamine], the “participation in the overall effect of AGRYLIN” value (platelets [5]) is listed as “does not participate”.
With CCCc1nn(C)c2c(=O)[nH]c(-c3cc(S(=O)(=O)N4CCN(C)CC4)ccc3OCC)nc12 [Sildenafil] the “RV/LV + S” value [2, 10] was 0.51 ± 0.03, the HR [2, 10] was 278 ± 21 bpm and the HW/BW [2, 10] was 3.89 ± 0.17. For the same molecule, the “Heart Wt” value [2, 10] was 1.24 ± 0.02 g, the “LV Wt” value [2, 10] was 0.74 ± 0.02 g and the “Lung Wt” value [2, 10] was 2.36 ± 0.13 g. For the same molecule, the MAP [2, 10] was 69 ± 5 mm Hg, the “Mean PAP” value [2, 10] was 38± 6 mm Hg and the “RV Wt” value [2, 10] was 0.38 ± 0.02 g. For the same molecule, the RV/BW [2, 10] was 1.19 ± 0.09 and the “Systolic PAP” value [2, 10] was 46 ± 7 mm Hg.
